Measurements: publication doi:10.1101/2022.09.09.507370v4 (biorxiv, 2022)

Legend:
Assay type in all cases: biochemical
Conditions in all cases: PS-liposome-stimulated (5.0 μM PS-liposomes), 20 nM enzyme, GTP, pH 7.4
[1] = test system: Dyn2-His6
[2] = test system: Dyn1-His6
[3] = test system: Dyn3-His6

- IC50 [1]: 9.2 ± 2.5 µM
- IC50 [2]: 8.1 ± 3.7 µM
- IC50 [3]: 7.8 ± 3 µM
Structure (SMILES): CCCCCCCCCCCCCC[N+](C)(C)C [MiTMAB]
